Reference: the supplement of paper PMC10307832

Key:
Assay in all cases: relative viability (nuclei count vs DMSO), 5 days (fraction); higher = more cells survive
[1] = compound: C1CC(C1)(C(=O)O)C(=O)O.[NH2-].[NH2-].[Pt+2] [Carboplatin] + CC(=O)c1c(C)c2cnc(Nc3ccc(N4CCNCC4)cn3)nc2n(C2CCCC2)c1=O [Palbociclib] (partner 0.5 µM)
Method in brief: (§1)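 Medians of duplicate plates are given as relative viability. That measure is the nuclei count in treated wells divided by the count in vehicle wells. Counts were taken on 4× images of lung cancer cell lines in 1536-well plates, 5 days after pin-tool dosing the day after seeding with one drug alone or a fixed anchor-drug dose plus five library-drug doses (not always all listed) in √10 steps.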

Carboplatin + Dasatinib = compound: C1CC(C1)(C(=O)O)C(=O)O.[NH2-].[NH2-].[Pt+2] [Carboplatin] + Cc1nc(Nc2ncc(C(=O)Nc3c(C)cccc3Cl)s2)cc(N2CCN(CCO)CC2)n1 [Dasatinib] (partner 0.075 µM)
Method in brief: as §1

GSK126 + OSI-027 = compound: CC[C@H](C)N1C=C(C2=C(C=C(C=C21)C3=CN=C(C=C3)N4CCNCC4)C(=O)NCC5=C(C=C(NC5=O)C)C)C [GSK126] + COc1cccc2cc(-c3nc([C@H]4CC[C@H](C(=O)O)CC4)n4ncnc(N)c34)[nH]c12 [OSI-027] (partner 0.5 µM)
Method in brief: as §1

GSK126 + AZD7762 = compound: CC[C@H](C)N1C=C(C2=C(C=C(C=C21)C3=CN=C(C=C3)N4CCNCC4)C(=O)NCC5=C(C=C(NC5=O)C)C)C [GSK126] + NC(=O)Nc1cc(-c2cccc(F)c2)sc1C(=O)N[C@H]1CCCNC1 [AZD7762] (partner 0.2 µM)
Method in brief: as §1

Cell Line | relative viability ([1]; first compound 0.08 µM) | relative viability ([1]; first compound 0.253 µM) | relative viability ([1]; first compound 0.8 µM) | relative viability ([1]; first compound 2.53 µM) | relative viability ([1]; first compound 8 µM) | relative viability (Carboplatin + Dasatinib; first compound 0.08 µM) | relative viability (Carboplatin + Dasatinib; first compound 0.253 µM) | relative viability (Carboplatin + Dasatinib; first compound 0.8 µM) | relative viability (Carboplatin + Dasatinib; first compound 2.53 µM) | relative viability (Carboplatin + Dasatinib; first compound 8 µM) | relative viability (GSK126 + OSI-027; first compound 0.08 µM) | relative viability (GSK126 + OSI-027; first compound 0.253 µM) | relative viability (GSK126 + OSI-027; first compound 0.8 µM) | relative viability (GSK126 + OSI-027; first compound 2.53 µM) | relative viability (GSK126 + OSI-027; first compound 8 µM) | relative viability (GSK126 + AZD7762; first compound 0.08 µM) | relative viability (GSK126 + AZD7762; first compound 0.253 µM) | relative viability (GSK126 + AZD7762; first compound 0.8 µM) | relative viability (GSK126 + AZD7762; first compound 2.53 µM) | relative viability (GSK126 + AZD7762; first compound 8 µM)
HCC-827 | 0.479 | 0.38 | 0.499 | 0.44 | 0.469 | 0.327 | 0.326 | 0.337 | 0.35 | 0.432 | 0.803 | 0.83 | 0.768 | 0.768 | 0.776 | 0.214 | 0.191 | 0.24 | 0.232 | 0.196
HOP-62 | 0.441 | 0.431 | 0.462 | 0.409 | 0.383 | 0.711 | 0.711 | 0.645 | 0.728 | 0.575 | 0.888 | 0.845 | 0.869 | 0.867 | 0.798 | 0.67 | 0.757 | 0.819 | 0.528 | 0.363
LC-2-ad | 0.503 | 0.561 | 0.419 | 0.466 | 0.47 | 0.701 | 0.567 | 0.414 | 0.416 | 0.277 | 1.02 | 0.868 | 0.902 | 0.862 | 0.985 | 0.851 | 0.866 | 0.858 | 0.953 | 0.92
LCLC-97TM1 | 0.206 | 0.211 | 0.257 | 0.211 | 0.206 | 0.848 | 0.921 | 0.844 | 0.808 | 0.647 | 0.503 | 0.421 | 0.546 | 0.606 | 0.635 | 0.307 | 0.312 | 0.228 | 0.267 | 0.24
LCLC-103H | 0.538 | 0.469 | 0.543 | 0.431 | 0.444 | 0.481 | 0.55 | 0.524 | 0.482 | 0.445 | 0.514 | 0.453 | 0.533 | 0.435 | 0.456 | 0.847 | 0.86 | 0.786 | 0.778 | 0.843
LK-2 | 0.619 | 0.824 | 0.796 | 0.789 | 0.658 | 0.275 | 0.252 | 0.295 | 0.197 | 0.379 | 0.168 | 0.245 | 0.212 | 0.282 | 0.303 | 0.402 | 0.364 | 0.401 | 0.623 | 0.293
NCI-H520 | 0.26 | 0.2 | 0.201 | 0.223 | 0.228 | 0.216 | 0.239 | 0.185 | 0.263 | 0.193 | 0.313 | 0.269 | 0.289 | 0.307 | 0.314 |  |  |  |  | 
NCI-H596 |  |  |  |  |  | 0.725 | 0.72 | 0.697 | 0.525 | 0.539 | 0.895 | 0.701 | 0.798 | 0.754 | 0.714 | 1.12 | 0.904 | 1.2 | 1.12 | 0.988
NCI-H661 | 0.385 | 0.428 | 0.399 | 0.416 | 0.374 | 1.06 | 0.923 | 0.844 | 0.82 | 0.746 | 0.769 | 0.737 | 0.762 | 0.746 | 0.74 |  |  |  |  | 
NCI-H1563 |  |  |  |  |  | 0.496 | 0.464 | 0.439 | 0.399 | 0.445 | 0.789 | 0.785 | 0.863 | 0.803 | 0.753 |  |  |  |  | 
NCI-H1623 |  |  |  |  |  | 0.583 | 0.553 | 0.57 | 0.506 | 0.469 | 0.414 | 0.473 | 0.425 | 0.504 | 0.401 |  |  |  |  | 
NCI-H1648 | 0.239 | 0.291 | 0.264 | 0.302 | 0.3 |  |  |  |  |  | 0.248 |  | 0.265 | 0.242 | 0.252 | 0.568 | 0.756 | 0.73 | 0.718 | 0.522
NCI-H1650 | 0.321 | 0.341 | 0.359 | 0.349 | 0.251 | 0.31 | 0.357 | 0.321 | 0.273 | 0.299 | 0.834 | 0.594 | 0.703 | 0.684 | 0.681 |  |  |  |  | 
NCI-H1703 |  |  |  |  |  |  |  |  |  |  |  |  |  |  |  | 0.115 | 0.115 | 0.133 | 0.118 | 0.137
NCI-H2009 | 0.203 | 0.202 | 0.182 | 0.207 | 0.183 | 0.321 | 0.286 | 0.29 | 0.291 | 0.249 | 0.789 | 0.544 | 0.64 | 0.682 | 0.72 |  |  |  |  | 
NCI-H2023 | 0.433 | 0.384 | 0.318 | 0.326 | 0.121 | 0.584 | 0.635 | 0.471 | 0.29 | 0.149 | 0.595 | 0.388 | 0.447 | 0.495 | 0.527 |  |  |  |  | 
NCI-H2228 | 0.898 | 0.841 | 0.654 | 0.737 | 0.552 | 0.667 | 0.482 | 0.425 | 0.444 | 0.326 | 0.635 | 0.729 | 0.579 | 0.613 | 0.634 |  |  |  |  | 
SK-LU-1 | 0.424 | 0.386 | 0.363 | 0.415 | 0.355 | 0.198 | 0.205 | 0.166 | 0.179 | 0.165 | 0.435 | 0.37 | 0.401 | 0.416 | 0.387 |  |  |  |  | 
SK-MES-1 | 0.354 | 0.298 | 0.316 | 0.329 | 0.315 | 0.574 | 0.354 | 0.344 | 0.379 | 0.363 | 0.626 | 0.649 | 0.637 | 0.654 | 0.712 |  |  |  |  | 
SW 1573 | 0.484 | 0.438 | 0.43 | 0.369 | 0.273 | 0.58 | 0.495 | 0.474 | 0.507 | 0.329 | 0.959 | 0.656 | 0.665 | 0.625 | 0.846 |  |  |  |  | 
